We go through 1 compound from patent US20060111848A1, “Identification and use of cofactor independent phosphoglycerate mutase as a drug target for pathogenic organisms and treatment of the same” (New England Biolabs, Inc., priority 2003, published 2006).

One assay deals with T1, B. malayi iPGM (Brugia malayi, UniProt Q4VWF8).
T1 construct: The full-length iPGMs from C. elegans, B. malayi and Wolbachia were overexpressed in E. coli; His tag (C); made in house; host or cells: E. coli ER2566
Briefly: PGM activity, spectrophotometric NADH-coupled assay, recombinant B. malayi iPGM. It is filed as biochemical. Particulars: recombinant enzyme. As for the experimental part: (§1) The purified CeiPGM, WoliPGM and BmiPGM proteins described in Example 4 were assayed for PGM activity and found to be active. Activity was measured in forward and reverse directions using a standard spectrophotometric assay (White and Fothergill-Gilmore, European J. Biochem. 207:709-714 1992)) as outlined in FIG. 9. In the forward reaction (glycolytic), the conversion of 3-PG to 2-PG is measured, whereas in the reverse direction (gluconeogenic), the conversion of 2-PG to 3-PG is assayed. In both cases, PGM activity was determined indirectly by measuring the consumption of NADH, which is monitored at 340 nm. The amount of NADH being oxidized to NAD corresponds to the amount of enzyme product (2-PG in the forward direction or 3-PG in the reverse direction) yielded in the PGM reaction. Reactions were performed at 30° C. for 5 minutes with data collected at 10-second intervals using a Beckman DU 640 spectrophotometer. In the forward reaction, iPGM was added to 1 ml assay buffer (30 mM Tris-HCl pH 7.0, 5 mM MgSO4, 20 mM KCl, 0.15 mM NADH) containing 1 mM ADP, 10 mM 3-PGA (Sigma P8877, Sigma-Aldrich, St. Louis, Mo.), 2.5 U each of enolase (Sigma E6126, EC 4.2.1.11, Sigma-Aldrich, St. Louis, Mo.), pyruvate kinase (Sigma P7768, EC 2.7.1.40, Sigma-Aldrich, St. Louis, Mo.) and lactate dehydrogenase (Sigma L2518; EC 1.1.1.27, Sigma-Aldrich, St. Louis, Mo.). […]

A further assay deals with T2, C. elegans iPGM (Caenorhabditis elegans, UniProt G5EFZ1).
T2 construct: The full-length iPGMs from C. elegans, B. malayi and Wolbachia were overexpressed in E. coli; His tag (C); made in house; host or cells: E. coli ER2566
T2 sequence (G5EFZ1 1-521 isoform G5EFZ1-2): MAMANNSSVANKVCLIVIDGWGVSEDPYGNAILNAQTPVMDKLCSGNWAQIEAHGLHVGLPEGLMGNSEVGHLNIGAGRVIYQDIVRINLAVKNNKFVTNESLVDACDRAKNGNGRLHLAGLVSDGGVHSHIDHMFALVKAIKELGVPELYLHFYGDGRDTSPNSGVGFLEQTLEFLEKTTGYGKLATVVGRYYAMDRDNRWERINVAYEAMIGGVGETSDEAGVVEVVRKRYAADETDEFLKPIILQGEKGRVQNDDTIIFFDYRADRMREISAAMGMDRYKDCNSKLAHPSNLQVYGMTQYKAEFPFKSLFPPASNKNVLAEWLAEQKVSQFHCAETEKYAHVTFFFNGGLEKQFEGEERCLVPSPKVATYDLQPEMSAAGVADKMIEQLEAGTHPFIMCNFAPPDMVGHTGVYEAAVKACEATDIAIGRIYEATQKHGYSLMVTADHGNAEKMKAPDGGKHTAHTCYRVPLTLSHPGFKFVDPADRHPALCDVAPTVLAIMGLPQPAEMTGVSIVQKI
Briefly: PGM activity, spectrophotometric NADH-coupled assay, recombinant C. elegans iPGM. It counts as biochemical. Particulars: recombinant enzyme. The method, then: as §1

The next assay concerns Wolbachia iPGM. Briefly: PGM activity, spectrophotometric NADH-coupled assay, recombinant Wolbachia iPGM. Particulars: recombinant enzyme. It counts as biochemical. As for the experimental part: as §1
For the next assay, the system named is dPGM. As to conditions: cited from earlier work.
For another assay, the system named is iPGM. Particulars: cited from earlier work.

T1 sequence (Q4VWF8 whole entry): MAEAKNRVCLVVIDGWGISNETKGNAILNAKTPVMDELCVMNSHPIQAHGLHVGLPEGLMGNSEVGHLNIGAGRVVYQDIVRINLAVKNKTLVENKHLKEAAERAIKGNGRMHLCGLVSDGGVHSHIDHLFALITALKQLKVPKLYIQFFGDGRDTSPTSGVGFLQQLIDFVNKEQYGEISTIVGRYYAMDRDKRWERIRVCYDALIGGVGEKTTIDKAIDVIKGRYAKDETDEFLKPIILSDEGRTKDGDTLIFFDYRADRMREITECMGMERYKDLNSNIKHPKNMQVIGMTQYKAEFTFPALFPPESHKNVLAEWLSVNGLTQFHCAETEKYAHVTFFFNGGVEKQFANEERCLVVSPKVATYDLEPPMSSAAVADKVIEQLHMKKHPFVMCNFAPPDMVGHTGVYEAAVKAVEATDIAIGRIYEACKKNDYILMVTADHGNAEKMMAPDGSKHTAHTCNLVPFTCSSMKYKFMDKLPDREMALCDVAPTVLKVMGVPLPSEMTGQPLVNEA

`[O]=[V]([O-])([O-])[O-]` [vanadate]: the “inhibition of PGM activity” value at B. malayi iPGM, on C. elegans iPGM and in the assay on Wolbachia iPGM was “not inhibited” each time. In addition, the “effect on dPGM activity” value with dPGM was “inhibited”. For the same compound, the “effect on iPGM activity” value in the assay with iPGM is “insensitive”.
